In article PMC9582125, “Two triphosphate tunnel metalloenzymes from apple exhibit adenylyl cyclase activity” (Frontiers in Plant Science, 2022):

Molecular target: T1, HpAC1 (Hippeastrum hybrid cultivar, UniProt E1AQY1)
T1 construct: gene AC1
T1 sequence (E1AQY1 1-206): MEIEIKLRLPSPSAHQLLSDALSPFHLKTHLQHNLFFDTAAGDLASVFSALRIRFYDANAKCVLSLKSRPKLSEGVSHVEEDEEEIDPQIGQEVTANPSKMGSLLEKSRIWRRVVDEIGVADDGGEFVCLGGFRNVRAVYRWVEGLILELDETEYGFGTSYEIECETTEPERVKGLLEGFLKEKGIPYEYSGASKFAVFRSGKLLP
Experiment: malachite green phosphate release
Format: biochemical
Settings: divalent cation, pH 7.5, 30 °C; hydrolysis

O=P(O)(O)OP(=O)(O)OP(=O)(O)O [PPPi]
malachite green phosphate release: HpAC1 could hydrolyze both organic and inorganic triphosphates like MdTTM2
